Experimental data from ChEMBL document CHEMBL1697781, “Assessment of the health effects of chemicals in humans: II. Construction of an adverse effects database for QSAR modeling” (Curr Drug Discov Technol, 2004).

Assays:
Conditions in all cases: human; call rule not given here
Hepatotoxicity [1] = experiment: FDA HLAED, liver enzyme composite activity
Hepatotoxicity [2] = experiment: FDA HLAED, alkaline phosphatase increase
Hepatotoxicity [3] = experiment: FDA HLAED, serum glutamic oxaloacetic transaminase (SGOT) increase
Hepatotoxicity [4] = experiment: FDA HLAED, serum glutamic pyruvic transaminase (SGPT) increase
Hepatotoxicity [5] = experiment: FDA HLAED, lactate dehydrogenase (LDH) increase
Hepatotoxicity [6] = experiment: FDA HLAED, gamma-glutamyl transferase (GGT) increase
For GGT Increase - Index Value in this document: reference of the scale not given here.
For LDH Increase - Index Value in this document: reference of the scale not given here.

Row | SMILES | Alkaline Phosphatase Increase - Activity Score (Hepatotoxicity [2]) | Alkaline Phosphatase Increase - Index Value (Hepatotoxicity [2]) | Alkaline Phosphatase Increase - Number of Reports (Hepatotoxicity [2]) | SGOT Increase - Activity Score (Hepatotoxicity [3]) | SGOT Increase - Index Value (Hepatotoxicity [3]) | SGOT Increase - Number of Reports (Hepatotoxicity [3]) | SGPT Increase - Activity Score (Hepatotoxicity [4]) | SGPT Increase - Index Value (Hepatotoxicity [4]) | SGPT Increase - Number of Reports (Hepatotoxicity [4]) | LDH Increase - Activity Score (Hepatotoxicity [5]) | LDH Increase - Index Value (Hepatotoxicity [5]) | LDH Increase - Number of Reports (Hepatotoxicity [5]) | GGT Increase - Activity Score (Hepatotoxicity [6]) | GGT Increase - Index Value (Hepatotoxicity [6]) | GGT Increase - Number of Reports (Hepatotoxicity [6]) | Composite Activity - Active (Hepatotoxicity [1]) | Composite Activity - Marginal (Hepatotoxicity [1]) | Composite Activity - Score (Hepatotoxicity [1]) | other results
1 | CC(=O)O[C@H]1C(=O)[C@@]2(C)[C@H]([C@H](OC(=O)c3ccccc3)[C@]3(O)C[C@H](OC(=O)[C@H](O)[C@@H](NC(=O)c4ccccc4)c4ccccc4)C(C)=C1C3(C)C)[C@]1(OC(C)=O)CO[C@@H]1C[C@@H]2O [PACLITAXEL] | Marginally Active | 3.7 | >= 4 | Inactive | 2.5 | >= 4 | Inactive | 0.8 | < 4 | Inactive | 2.2 | >= 4 | Inactive | 1.2 | >= 4 | – | – | – | Composite Activity - Active (Hepatotoxicity [1]; Liver): 0; Composite Activity - Marginal (Hepatotoxicity [1]; Liver): 1; Composite Activity - Score (Hepatotoxicity [1]; Liver): Inactive
2 | NCCC(O)(P(=O)(O)O)P(=O)(O)O [PAMIDRONIC ACID] | Active | 16.6 | >= 4 | Inactive | 4.1 | < 4 | Inactive | 4.1 | < 4 | Inactive | 4.1 | < 4 | Active | 12.4 | < 4 | 2 | 0 | Active | –
3 | Fc1ccc([C@@H]2CCNC[C@H]2COc2ccc3c(c2)OCO3)cc1 [PAROXETINE] | Inactive | 0.7 | >= 4 | Inactive | 1.2 | >= 4 | Inactive | 1 | >= 4 | Inactive | 0.4 | >= 4 | Inactive | 0.5 | >= 4 | 0 | 0 | Inactive | –
4 | CC(C)(C)NC[C@H](O)COc1ccccc1C1CCCC1 [PENBUTOLOL] | Inactive | 0 | < 4 | Inactive | 0 | < 4 | Inactive | 0 | < 4 | Inactive | 0 | < 4 | Inactive | 0 | < 4 | 0 | 0 | Inactive | –
5 | Nc1nc2c(ncn2CCC(CO)CO)c(=O)[nH]1 [PENCICLOVIR] | Inactive | 0 | < 4 | Inactive | 0 | < 4 | Inactive | 0 | < 4 | Inactive | 0 | < 4 | Inactive | 0 | < 4 | 0 | 0 | Inactive | –
6 | N=C(N)c1ccc(OCCCCCOc2ccc(C(=N)N)cc2)cc1 [PENTAMIDINE] | Inactive | 11.5 | < 4 | Inactive | 5.7 | < 4 | Inactive | 5.7 | < 4 | Inactive | 5.7 | < 4 | Inactive | 0 | < 4 | 0 | 0 | Inactive | –
7 | OC[C@H]1O[C@@H](n2cnc3c2NC=NC[C@H]3O)C[C@@H]1O [PENTOSTATIN] | Inactive | 0 | < 4 | Inactive | 0 | < 4 | Inactive | 0 | < 4 | Inactive | 0 | < 4 | Inactive | 0 | < 4 | 0 | 0 | Inactive | –
8 | CC(=O)CCCCn1c(=O)c2c(ncn2C)n(C)c1=O [PENTOXIFYLLINE] | Inactive | 1 | >= 4 | Inactive | 0.9 | >= 4 | Inactive | 0.3 | < 4 | Inactive | 0.6 | >= 4 | Inactive | 0 | < 4 | 0 | 0 | Inactive | –
9 | CCCN1C[C@H](CSC)C[C@@H]2c3cccc4[nH]cc(c34)C[C@H]21 [PERGOLIDE] | Inactive | 1.3 | < 4 | Inactive | 3.9 | < 4 | Inactive | 3.9 | < 4 | Inactive | 0 | < 4 | Inactive | 0 | < 4 | 0 | 0 | Inactive | –
10 | CC1(C)C(C=C(Cl)Cl)C1C(=O)OCc1cccc(Oc2ccccc2)c1 (stereo unspecified) [PERMETHRIN] | Inactive | 0 | < 4 | Inactive | 0 | < 4 | Inactive | 0 | < 4 | Inactive | 0 | < 4 | Inactive | 0 | < 4 | 0 | 0 | Inactive | –
11 | CC[C@@H]1C(=O)OC[C@@H]1Cc1cncn1C [PILOCARPINE] | Inactive | 0 | < 4 | Inactive | 4.6 | < 4 | Inactive | 4.6 | < 4 | Inactive | 0 | < 4 | Inactive | 0 | < 4 | 0 | 0 | Inactive | –
12 | O=c1[nH]c2ccccc2n1C1CCN(CCCC(c2ccc(F)cc2)c2ccc(F)cc2)CC1 [PIMOZIDE] | Inactive | 17.6 | < 4 | Inactive | 0 | < 4 | Inactive | 17.6 | < 4 | Inactive | 0 | < 4 | Inactive | 17.6 | < 4 | 0 | 0 | Inactive | –
